Results taken from BindingDB's records for doi:10.1016/j.bmcl.2007.02.040 (Merck Research Laboratories, 2007).

Target: Dipeptidyl peptidase 4 (Homo sapiens, UniProt P27487)
Experiment: Dipeptidyl Peptidase Inhibition Assay
Conditions: pH 7.5; 37 °C

Sequence of Dipeptidyl peptidase 4 (P27487 whole entry): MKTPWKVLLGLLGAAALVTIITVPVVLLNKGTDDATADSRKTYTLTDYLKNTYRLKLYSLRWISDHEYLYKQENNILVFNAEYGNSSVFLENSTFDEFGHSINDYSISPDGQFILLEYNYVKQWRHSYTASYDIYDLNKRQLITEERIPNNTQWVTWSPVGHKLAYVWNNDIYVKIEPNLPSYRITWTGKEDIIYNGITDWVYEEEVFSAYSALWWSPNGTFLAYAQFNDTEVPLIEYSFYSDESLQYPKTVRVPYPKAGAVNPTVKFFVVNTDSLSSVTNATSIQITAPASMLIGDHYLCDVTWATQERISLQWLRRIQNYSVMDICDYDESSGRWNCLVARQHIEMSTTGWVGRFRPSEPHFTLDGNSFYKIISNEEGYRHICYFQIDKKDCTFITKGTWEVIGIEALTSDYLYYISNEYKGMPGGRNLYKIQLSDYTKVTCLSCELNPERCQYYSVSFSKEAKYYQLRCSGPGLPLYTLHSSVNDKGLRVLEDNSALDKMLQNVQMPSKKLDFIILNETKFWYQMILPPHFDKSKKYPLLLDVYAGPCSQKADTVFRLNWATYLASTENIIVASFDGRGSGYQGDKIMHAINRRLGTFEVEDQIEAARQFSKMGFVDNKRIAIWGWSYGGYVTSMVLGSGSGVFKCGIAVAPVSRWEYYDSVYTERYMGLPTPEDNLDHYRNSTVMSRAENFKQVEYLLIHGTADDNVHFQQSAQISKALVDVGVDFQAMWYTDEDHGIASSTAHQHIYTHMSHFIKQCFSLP

Row | IC50 [nM] | Structure (SMILES)
1 | 8 | CC(C)[C@H](Oc1ccc(CNC(=O)[C@@H]2CCCN2C(=O)C[C@H](N)Cc2c(F)c(F)c(F)c(F)c2F)cc1)C(=O)O [(2S)-2-[4-({[(2S)-1-[(3R)-3-amino-4-(2,3,4,5,6-pentafluorophenyl)butanoyl]pyrrolidin-2-yl]formamido}methyl)phenoxy]-3-methylbutanoic acid]
2 | 520 | C[C@H](C(=O)N1CCOCC1)[C@@H](C(=O)N(C)C)c1ccc(-c2ccc(F)cc2)cc1 [(2R,3S)-2-[4-(4-fluorophenyl)phenyl]-N,N,3-trimethyl-4-(morpholin-4-yl)-4-oxobutanamide]
